Results taken from patent US20250177383A1, “DI-CYCLOPROPYL BASED IL-17A MODULATORS AND USES THEREOF” (DICE ALPHA, INC., priority 2022, published 2025).

Columns and labels:
[1] = Microsomal stability, rat liver microsomes; format: in vitro ADME; conditions: SD rat liver microsomes 0.5 mg protein/mL, 1 μM test compound, NADPH, 37° C., 60 min; read-out: RLM Clint
Protocol: (§1) Test compound and control working solution preparation. 5 μL of a compound and control stock solution (10 mM in dimethyl sulfoxide (DMSO)) were diluted with 495 μL of acetonitrile (ACN).
(§2) NADPH cofactor preparation. The appropriate amount of NADPH powder was weighed and diluted into a 10 mM MgCl2 solution (working solution concentration: 10 mM; final concentration in reaction system: 1 mM). Materials: NADPH powder: β-Nicotinamide adenine dinucleotide phosphate reduced form, tetrasodium salt; NADPHA4Na (Vendor: Chem-Impex International, Cat. No. 00616).
(§3) Liver Microsome Preparation. The appropriate concentrations of microsome working solutions were prepared in 100 mM potassium phosphate buffer. Materials: Human Liver Microsomes (HLM) Cat No. 452117 and Lot No. 38295 (Corning); SD Rat Liver Microsomes (RLM) Cat No. R1000 and Lot No. 1910100 (Xenotech).
(§4) Stop solution preparation. Cold (4° C.) acetonitrile (ACN) containing 200 ng/mL tolbutamide and 200 ng/mL labetalol as internal standards (IS) were used as the stop solution.
(§5) Assay Procedure. Empty incubation plates (T60 and NCF60) were warmed for 10 mins prior to use. Liver microsomes were diluted to 0.56 mg/mL in 100 mM phosphate buffer. 445 uL microsome working solutions (0.56 mg/mL) were transferred into pre-warmed ‘Incubation’ plates T60 and NCF60, Then ‘Incubation’ plates T60 and NCF60 were pre-incubated for 10 min at 37° C. with constant shaking. 54 μL liver microsomes were transferred to the blank plate, then 6 μL NAPDH cofactor were added to the blank plate, followed by the addition 180 μL quenching solution to the blank plate. 5 μL compound working solution (100 μM) were added into ‘incubation’ plates (T60 and NCF60) containing microsomes and mixed thoroughly 3 times. To the NCF60 plate 50 μL of buffer were added and mixed 3 times thoroughly. Start timing; plate was incubated at 37° C. for 60 min while shaking. In ‘Quenching’ plate TO, were added 180 μL quenching solution and 6 μL NAPDH cofactor. Plate is chilled to prevent evaporation. The T60 plate, was mixed 3 times thoroughly, and immediately 54 μL of the mixture was removed for the 0-min time point to ‘Quenching’ plate. Then 44 μL NAPDH cofactor was added to the incubation plate (T60). Start timing; plate was incubated at 37° C. for 60 min while shaking. Final concentrations of each component in the incubation media: Microsome (0.5 mg protein/mL); Test compound (1 μM); control compound ([…]); ACN (0.99%); and DMSO (0.01%). At 5, 15, 30, 45, and 60 min, 180 μL quenching solution was added to ‘Quenching’ plates, mixed once, and serially transferred 60 μL of sample from T60 plate per time point to ‘Quenching’ plates. For the NCF60 plate, mix once and 60 μL of sample was transferred from the NCF60 incubation to ‘Quenching’ plate containing quenching solution at the 60-min time point (Start time 1:00:00 and End Time 0:00:00).
(§6) All sampling plates were shaken for 10 min, then centrifuged at 4000 rpm for 20 minutes at 4° C. 80 μL of supernatant were transferred into 240 μL HPLC water, and mixed by plate shaker for 10 min. Each bioanalysis plate was sealed and shaken for 10 minutes prior to LC-MS/MS analysis.

[2] = Microsomal stability, human liver microsomes; format: in vitro ADME; conditions: human liver microsomes 0.5 mg protein/mL, 1 μM test compound, NADPH, 37° C., 60 min; read-out: HLM Clint
Protocol: as §1, §2, §3, §4, §5, §6

[3] = target: T1, IL-17A/A (Homo sapiens, UniProt Q16552); test: IL-17A/A HEK-Blue Cell Assay; format: cell-based; conditions: HEK-Blue IL-17 reporter cells, IL-17A/A stimulation, 20 hours, SEAP readout; read-out: IL17 AA HEK-5 pIC50 (converted)
T1 sequence (Q16552 24-155): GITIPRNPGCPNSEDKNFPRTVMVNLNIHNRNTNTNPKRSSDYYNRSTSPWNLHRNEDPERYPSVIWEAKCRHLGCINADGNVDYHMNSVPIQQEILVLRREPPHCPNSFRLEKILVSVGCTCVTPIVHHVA
Procedure, shortened: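 Cells co-expressing IL-17RA, IL-17RC and Act1 received titrated compound, top final 10 uM in 0.1% DMSO, immediately before IL-17A/A stimulation.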

[4] = target: T2, IL-17A/F (Homo sapiens, UniProt Q16552+Q96PD4); test: IL-17A/F HEK-Blue Cell Assay; format: cell-based; conditions: HEK-Blue IL-17 reporter cells, IL-17A/F stimulation, 20 hours, SEAP readout; read-out: IL17AF HEK Blue pIC50 (converted)
T2 sequence (Q16552 24-155): T1 sequence (Q16552 24-155)
T2 sequence (Q96PD4 31-163): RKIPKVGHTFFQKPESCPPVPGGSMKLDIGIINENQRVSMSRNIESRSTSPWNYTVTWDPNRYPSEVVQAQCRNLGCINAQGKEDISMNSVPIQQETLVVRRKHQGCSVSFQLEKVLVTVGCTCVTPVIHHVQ

[5] = Rat pharmacokinetics, PO; format: in vivo; conditions: male rat, PO 5 mg/kg oral gavage, plasma, Linear/log trapezoidal; read-out: Rat PO AUC0-t
Protocol: Formulations for PO. An appropriate amount of the test article is weighed and mixed with the appropriate volume of vehicle to get a clear solution or a uniform suspension, vortexing or sonication in water bath may used. Animals are dosed within four hours after the formulation is prepared.
Formulation samples are removed from each of the formulation solutions or suspensions, transferred into 1.5 mL of polypropylene microcentrifuge tubes and run dose validated by LC/UV or LC-MS/MS.
Dose administration. For PO dosing, the dose formulation is administered via oral gavage.
Blood Collection. Each blood collection (about 0.2 mL per time point) is performed from carotid artery cannula (CAC) of each animal into a pre-chilled commercial EDTA-K2 tubes as anti-coagulant, then placed on wet ice until centrifugation. Blood samples are processed for plasma by centrifugation at approximately 4° C., 3,200 g for 10 min. Plasma is collected respectively and a certain amount of plasma from rat is transferred into pre-labeled 96 well plate or polypropylene tubes, quick frozen over dry ice and kept at −60° C. or lower until LC-MS/MS analysis. After terminal collection, all plasmas are stored at approximately −80° C. freezer until final analysis.
Plasma concentration versus time data are plotted in graph and analyzed by non-compartmental approaches using the Phoenix WinNonlin 6.3 software program. Trapezoids: Before TMax (Linear); After Tmax (Log). Partial Area Interpolations: Before TMax (Linear); After Tmax (Log).

microsomal CLint at 1 μM [1] [µL/min/mg]	microsomal CLint at 1 μM [2] [µL/min/mg]	IC50 [3] [nM]	IC50 [4] [nM]	AUC(0-t) [5] [ng·h/mL]	SMILES
9.6 to 20	< 50	< 10	10 to 100	500 to 1000	CCC(=O)N[C@@H](C(=O)N1C[C@@H](C)N(C)C[C@H]1C)[C@@H](C)c1ccc(NC(=O)[C@@H](NC(=O)c2ccnn2CC)C(C2CC2)C2CC2)c(F)c1 [Compound 212]
< 9.6	50 to 150	10 to 100	10 to 100	> 1000	CCn1nccc1C(=O)N[C@H](C(=O)Nc1ccc([C@H](C)[C@@H](NC(=O)COC)C(=O)N2CCN(C)CC2)cc1F)C(C1CC1)C1CC1 [Compound 215]
< 9.6	< 50	10 to 100	100 to 10000	> 1000	CCC(=O)N[C@@H](C(=O)N1CCN(C)[C@H](C)C1)[C@@H](C)c1ccc(NC(=O)[C@@H](NC(=O)C2(F)CC2)C(C2CC2)C2CC2)c(F)c1 [Compound 245]

The next lines start with the molecule.

SMILES	microsomal CLint at 1 μM [1] [µL/min/mg]	microsomal CLint at 1 μM [2] [µL/min/mg]	IC50 [3] [nM]	IC50 [4] [nM]	AUC(0-t) [5] [ng·h/mL]
CCn1nccc1C(=O)N[C@H](C(=O)Nc1ccc([C@H](C)[C@@H](NC(=O)COC)C(=O)N2CCN(C)[C@H](C)C2)cc1F)C(C1CC1)C1CC1 [Compound 207]	< 9.6	50 to 150	< 10	10 to 100	> 1000
CCC(=O)N[C@@H](C(=O)N1CCN(C)[C@H](C)C1)[C@@H](C)c1ccc(NC(=O)[C@@H](NC(=O)c2ccnn2CC)C(C2CC2)C2CC2)c(F)c1 [Compound 209]	< 9.6	50 to 150	< 10	10 to 100	500 to 1000
CCC(=O)N[C@@H](C(=O)N1CCN(C)[C@@H](C)C1)[C@@H](C)c1ccc(NC(=O)[C@@H](NC(=O)c2ccnn2CC)C(C2CC2)C2CC2)c(F)c1 [Compound 213]	< 9.6	50 to 150	< 10	10 to 100	500 to 1000
